Numbers after ± are expanded uncertainties.
Legend:
[1] = 298.15 K; 101.33 kPa; Liquid; Vibrating tube method
[2] = refractive index (Na D-line) (dimensionless); conditions: 298.15 K; 101.33 kPa; Liquid; refractometer
[3] = molar heat capacity at constant pressure; conditions: 298.15 K; 101.33 kPa; Liquid; Flow calorimetry
[4] = heat capacity at constant pressure per volume; xn = mol fraction of the nth substance listed; conditions: 298.15 K, 101 kPa, Liquid, Flow calorimetry
[5] = xn = mol fraction of the nth substance listed; conditions: 298.15 K, 101 kPa, Liquid, Vibrating tube method
[6] = refractive index (Na D-line) (dimensionless); xn = mol fraction of the nth substance listed; conditions: 298.15 K, 101 kPa, Liquid, refractometer
[7] = excess molar enthalpy (molar enthalpy of mixing); xn = mol fraction of the nth substance listed; conditions: 298.15 K, 101 kPa, Liquid, Flow calorimetry

SMILES: C1CCOCC1 [tetrahydropyran]
- mass density [1]: 878.91 kg/m3
- refractive index [2]: 1.41865
- molar heat capacity at constant pressure [3]: 149.32 J/K/mol

SMILES: CCCC(C)=O [pentan-2-one] + C1CCOCC1
- heat capacity ([4]; x2 = 0.0611): 1698200 ± 2600 J/K/m3
- heat capacity ([4]; x2 = 0.1398): 1685200 ± 2600 J/K/m3
- heat capacity ([4]; x2 = 0.2219): 1670700 ± 2600 J/K/m3
- heat capacity ([4]; x2 = 0.3029): 1656100 ± 2600 J/K/m3
- heat capacity ([4]; x2 = 0.3789): 1641900 ± 2500 J/K/m3
- heat capacity ([4]; x2 = 0.457): 1627300 ± 2500 J/K/m3
- heat capacity ([4]; x2 = 0.5376): 1611700 ± 2500 J/K/m3
- heat capacity ([4]; x2 = 0.6153): 1596800 ± 2500 J/K/m3
- heat capacity ([4]; x2 = 0.698): 1580600 ± 2400 J/K/m3
- heat capacity ([4]; x2 = 0.7772): 1565100 ± 2400 J/K/m3
- heat capacity ([4]; x2 = 0.8503): 1550300 ± 2400 J/K/m3
- heat capacity ([4]; x2 = 0.9311): 1533300 ± 2400 J/K/m3
- mass density ([5]; x2 = 0.0708): 806.39 ± 0.42 kg/m3
- mass density ([5]; x2 = 0.1523): 812.26 ± 0.43 kg/m3
- mass density ([5]; x2 = 0.2361): 818.39 ± 0.43 kg/m3
- mass density ([5]; x2 = 0.3015): 823.22 ± 0.43 kg/m3
- mass density ([5]; x2 = 0.3529): 827.06 ± 0.43 kg/m3
- mass density ([5]; x2 = 0.3858): 829.54 ± 0.43 kg/m3
- mass density ([5]; x2 = 0.4384): 833.53 ± 0.43 kg/m3
- mass density ([5]; x2 = 0.4683): 835.82 ± 0.44 kg/m3
- mass density ([5]; x2 = 0.5046): 838.6 ± 0.44 kg/m3
- mass density ([5]; x2 = 0.5548): 842.49 ± 0.44 kg/m3
- mass density ([5]; x2 = 0.5825): 844.66 ± 0.44 kg/m3
- mass density ([5]; x2 = 0.6397): 849.17 ± 0.44 kg/m3
- mass density ([5]; x2 = 0.6747): 851.95 ± 0.44 kg/m3
- mass density ([5]; x2 = 0.7079): 854.61 ± 0.44 kg/m3
- mass density ([5]; x2 = 0.7776): 860.26 ± 0.45 kg/m3
- mass density ([5]; x2 = 0.8646): 867.44 ± 0.45 kg/m3
- mass density ([5]; x2 = 0.9428): 874.02 ± 0.45 kg/m3
- refractive index ([6]; x2 = 0.0811): 1.39011 ± 0.00021
- refractive index ([6]; x2 = 0.1565): 1.39223 ± 0.00021
- refractive index ([6]; x2 = 0.2425): 1.39468 ± 0.00021
- refractive index ([6]; x2 = 0.3122): 1.39668 ± 0.00021
- refractive index ([6]; x2 = 0.3557): 1.39796 ± 0.00021
- refractive index ([6]; x2 = 0.4037): 1.39937 ± 0.00021
- refractive index ([6]; x2 = 0.4406): 1.40047 ± 0.00021
- refractive index ([6]; x2 = 0.4757): 1.40153 ± 0.00021
- refractive index ([6]; x2 = 0.5107): 1.40259 ± 0.00021
- refractive index ([6]; x2 = 0.5449): 1.40364 ± 0.00021
- refractive index ([6]; x2 = 0.5933): 1.40514 ± 0.00021
- refractive index ([6]; x2 = 0.6252): 1.40614 ± 0.00021
- refractive index ([6]; x2 = 0.6681): 1.4075 ± 0.00021
- refractive index ([6]; x2 = 0.708): 1.40878 ± 0.00021
- refractive index ([6]; x2 = 0.7915): 1.4115 ± 0.00021
- refractive index ([6]; x2 = 0.8776): 1.41439 ± 0.00021
- refractive index ([6]; x2 = 0.9411): 1.41658 ± 0.00021
- excess molar enthalpy ([7]; x2 = 0.1): 0.00636 ± 0.000239 kcal/mol
- excess molar enthalpy ([7]; x2 = 0.15): 0.0092 ± 0.000263 kcal/mol
- excess molar enthalpy ([7]; x2 = 0.2): 0.0119 ± 0.000287 kcal/mol
- excess molar enthalpy ([7]; x2 = 0.25): 0.0144 ± 0.000311 kcal/mol
- excess molar enthalpy ([7]; x2 = 0.3): 0.0164 ± 0.000311 kcal/mol
- excess molar enthalpy ([7]; x2 = 0.35): 0.0182 ± 0.000335 kcal/mol
- excess molar enthalpy ([7]; x2 = 0.4): 0.0197 ± 0.000335 kcal/mol
- excess molar enthalpy ([7]; x2 = 0.45): 0.0209 ± 0.000359 kcal/mol
- excess molar enthalpy ([7]; x2 = 0.5): 0.0218 ± 0.000359 kcal/mol
- excess molar enthalpy ([7]; x2 = 0.55): 0.0222 ± 0.000359 kcal/mol
- excess molar enthalpy ([7]; x2 = 0.6): 0.0222 ± 0.000359 kcal/mol
- excess molar enthalpy ([7]; x2 = 0.65): 0.0219 ± 0.000359 kcal/mol
- excess molar enthalpy ([7]; x2 = 0.7): 0.0212 ± 0.000359 kcal/mol
- excess molar enthalpy ([7]; x2 = 0.75): 0.0197 ± 0.000335 kcal/mol
- excess molar enthalpy ([7]; x2 = 0.8): 0.0174 ± 0.000335 kcal/mol
- excess molar enthalpy ([7]; x2 = 0.85): 0.0145 ± 0.000311 kcal/mol
- excess molar enthalpy ([7]; x2 = 0.9): 0.0107 ± 0.000287 kcal/mol

SMILES: O=C1CCCCC1 [cyclohexanone] + C1CCOCC1
- excess molar enthalpy ([7]; x2 = 0.1): 0.00647 ± 0.000239 kcal/mol
- excess molar enthalpy ([7]; x2 = 0.15): 0.00919 ± 0.000263 kcal/mol
- excess molar enthalpy ([7]; x2 = 0.2): 0.0117 ± 0.000287 kcal/mol
- excess molar enthalpy ([7]; x2 = 0.25): 0.0139 ± 0.000287 kcal/mol
- excess molar enthalpy ([7]; x2 = 0.3): 0.016 ± 0.000311 kcal/mol
- excess molar enthalpy ([7]; x2 = 0.35): 0.0176 ± 0.000335 kcal/mol
- excess molar enthalpy ([7]; x2 = 0.4): 0.0189 ± 0.000335 kcal/mol
- excess molar enthalpy ([7]; x2 = 0.45): 0.0198 ± 0.000335 kcal/mol
- excess molar enthalpy ([7]; x2 = 0.5): 0.0207 ± 0.000335 kcal/mol
- excess molar enthalpy ([7]; x2 = 0.55): 0.0214 ± 0.000359 kcal/mol
- excess molar enthalpy ([7]; x2 = 0.6): 0.0215 ± 0.000359 kcal/mol
- excess molar enthalpy ([7]; x2 = 0.65): 0.0209 ± 0.000359 kcal/mol
- excess molar enthalpy ([7]; x2 = 0.7): 0.0199 ± 0.000335 kcal/mol
- excess molar enthalpy ([7]; x2 = 0.75): 0.0184 ± 0.000335 kcal/mol
- excess molar enthalpy ([7]; x2 = 0.8): 0.0164 ± 0.000311 kcal/mol
- excess molar enthalpy ([7]; x2 = 0.85): 0.0137 ± 0.000311 kcal/mol
- excess molar enthalpy ([7]; x2 = 0.9): 0.01 ± 0.000263 kcal/mol

SMILES: CCCCCC(C)=O [2-heptanone] + C1CCOCC1
- heat capacity ([4]; x2 = 0.0687): 1711900 ± 2700 J/K/m3
- heat capacity ([4]; x2 = 0.1469): 1699600 ± 2600 J/K/m3
- heat capacity ([4]; x2 = 0.2226): 1687400 ± 2600 J/K/m3
- heat capacity ([4]; x2 = 0.3113): 1672200 ± 2600 J/K/m3
- heat capacity ([4]; x2 = 0.3855): 1659100 ± 2600 J/K/m3
- heat capacity ([4]; x2 = 0.4613): 1645000 ± 2500 J/K/m3
- heat capacity ([4]; x2 = 0.5449): 1628000 ± 2500 J/K/m3
- heat capacity ([4]; x2 = 0.6288): 1610700 ± 2500 J/K/m3
- heat capacity ([4]; x2 = 0.7034): 1594700 ± 2500 J/K/m3
- heat capacity ([4]; x2 = 0.7801): 1576700 ± 2400 J/K/m3
- heat capacity ([4]; x2 = 0.8581): 1558500 ± 2400 J/K/m3
- heat capacity ([4]; x2 = 0.9388): 1538500 ± 2400 J/K/m3
- mass density ([5]; x2 = 0.0796): 814.73 ± 0.81 kg/m3
- mass density ([5]; x2 = 0.1679): 819.18 ± 0.77 kg/m3
- mass density ([5]; x2 = 0.2235): 822.12 ± 0.75 kg/m3
- mass density ([5]; x2 = 0.3185): 827.4 ± 0.72 kg/m3
- mass density ([5]; x2 = 0.3518): 829.33 ± 0.7 kg/m3
- mass density ([5]; x2 = 0.4045): 832.49 ± 0.68 kg/m3
- mass density ([5]; x2 = 0.4377): 834.53 ± 0.67 kg/m3
- mass density ([5]; x2 = 0.4617): 836.04 ± 0.66 kg/m3
- mass density ([5]; x2 = 0.5166): 839.61 ± 0.64 kg/m3
- mass density ([5]; x2 = 0.5455): 841.54 ± 0.63 kg/m3
- mass density ([5]; x2 = 0.5907): 844.65 ± 0.61 kg/m3
- mass density ([5]; x2 = 0.6312): 847.53 ± 0.6 kg/m3
- mass density ([5]; x2 = 0.6667): 850.14 ± 0.58 kg/m3
- mass density ([5]; x2 = 0.7077): 853.23 ± 0.57 kg/m3
- mass density ([5]; x2 = 0.7101): 853.42 ± 0.57 kg/m3
- mass density ([5]; x2 = 0.7907): 859.84 ± 0.54 kg/m3
- mass density ([5]; x2 = 0.8696): 866.59 ± 0.5 kg/m3
- mass density ([5]; x2 = 0.9539): 874.37 ± 0.47 kg/m3
- refractive index ([6]; x2 = 0.0855): 1.4075 ± 0.00039
- refractive index ([6]; x2 = 0.1588): 1.4081 ± 0.00037
- refractive index ([6]; x2 = 0.2375): 1.40879 ± 0.00036
- refractive index ([6]; x2 = 0.3113): 1.40947 ± 0.00034
- refractive index ([6]; x2 = 0.3532): 1.40988 ± 0.00033
- refractive index ([6]; x2 = 0.3936): 1.41029 ± 0.00033
- refractive index ([6]; x2 = 0.4287): 1.41065 ± 0.00032
- refractive index ([6]; x2 = 0.4658): 1.41105 ± 0.00031
- refractive index ([6]; x2 = 0.5486): 1.41198 ± 0.0003
- refractive index ([6]; x2 = 0.5896): 1.41246 ± 0.00029
- refractive index ([6]; x2 = 0.6261): 1.41291 ± 0.00028
- refractive index ([6]; x2 = 0.6665): 1.41343 ± 0.00027
- refractive index ([6]; x2 = 0.7046): 1.41393 ± 0.00026
- refractive index ([6]; x2 = 0.7855): 1.41507 ± 0.00025
- refractive index ([6]; x2 = 0.8677): 1.41633 ± 0.00023
- refractive index ([6]; x2 = 0.9473): 1.41768 ± 0.00022
- excess molar enthalpy ([7]; x2 = 0.1): 0.00354 ± 0.000215 kcal/mol
- excess molar enthalpy ([7]; x2 = 0.15): 0.0053 ± 0.000232 kcal/mol
- excess molar enthalpy ([7]; x2 = 0.2): 0.00696 ± 0.000239 kcal/mol
- excess molar enthalpy ([7]; x2 = 0.25): 0.0082 ± 0.000263 kcal/mol
- excess molar enthalpy ([7]; x2 = 0.3): 0.00946 ± 0.000263 kcal/mol
- excess molar enthalpy ([7]; x2 = 0.35): 0.0106 ± 0.000263 kcal/mol
- excess molar enthalpy ([7]; x2 = 0.4): 0.0118 ± 0.000287 kcal/mol
- excess molar enthalpy ([7]; x2 = 0.45): 0.0129 ± 0.000287 kcal/mol
- excess molar enthalpy ([7]; x2 = 0.5): 0.0138 ± 0.000287 kcal/mol
- excess molar enthalpy ([7]; x2 = 0.55): 0.0144 ± 0.000311 kcal/mol
- excess molar enthalpy ([7]; x2 = 0.6): 0.0147 ± 0.000311 kcal/mol
- excess molar enthalpy ([7]; x2 = 0.65): 0.0146 ± 0.000311 kcal/mol
- excess molar enthalpy ([7]; x2 = 0.7): 0.0142 ± 0.000287 kcal/mol
- excess molar enthalpy ([7]; x2 = 0.75): 0.0134 ± 0.000287 kcal/mol
- excess molar enthalpy ([7]; x2 = 0.8): 0.012 ± 0.000287 kcal/mol
- excess molar enthalpy ([7]; x2 = 0.85): 0.0103 ± 0.000263 kcal/mol
- excess molar enthalpy ([7]; x2 = 0.9): 0.00793 ± 0.000263 kcal/mol

— the NIST ThermoML archive (doi:10.1021/je025649t)
